The assay addresses human IDO1 (Homo sapiens, UniProt P14902). Nature of the assay: Assessment of human IDO-1 inhibitory activity in HEK cells (human IDO1/HEK293 cells, kynurenine read-out with Ehrlich reagent, absorbance 490 nm). On the set-up: expressed in transfected cells. To be noted: HEK Human IDO-1 cellular assay. The format is cell-based. A digest of the protocol:
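HEK293 cells stably expressing human IDO1 were seeded at 10,000 per well in phenol red-free RPMI with 10% FBS, treated with compound for 20 h at 37 °C. Kynurenine was measured after TCA (0.2% final) and 30 min at 50 °C, using Ehrlich reagent, A490. IC50 normalised to DMSO (0%) and 500 nM reference standard (100%).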

These results are taken from patent publication US9790169B2, “IDO inhibitors” (BRISTOL-MYERS SQUIBB COMPANY, priority 2015, dated 2017).

human IDO1, sequence (P14902 whole entry): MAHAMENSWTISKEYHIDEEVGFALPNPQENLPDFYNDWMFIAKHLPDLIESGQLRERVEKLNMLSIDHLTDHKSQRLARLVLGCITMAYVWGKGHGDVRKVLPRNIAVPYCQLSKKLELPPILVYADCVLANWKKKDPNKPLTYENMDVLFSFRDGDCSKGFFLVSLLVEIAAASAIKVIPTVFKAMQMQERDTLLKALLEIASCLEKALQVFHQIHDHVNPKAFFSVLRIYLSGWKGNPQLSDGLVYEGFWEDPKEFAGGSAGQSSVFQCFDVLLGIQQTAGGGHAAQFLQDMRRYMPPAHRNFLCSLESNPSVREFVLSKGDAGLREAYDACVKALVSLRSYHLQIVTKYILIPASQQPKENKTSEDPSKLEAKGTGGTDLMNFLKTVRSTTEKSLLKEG

For the molecule `CC[C@H](CC(=O)O)c1ccc(N(CC)C2CCOCC2)c(NC(=O)Nc2ccc(Cl)nc2)c1` (single isomer, unassigned) [Example 532], the IC50 (in general, the concentration that gives 50% inhibition) is less than 50 nM. With `CC[C@H](CC(=O)O)c1ccc(N(CC)C2CCOCC2)c(NC(=O)Nc2ccc3c(c2)CS(=O)(=O)C3)c1` (single isomer, unassigned) [Example 533] the figure was greater than 50 nM. With `CC[C@H](CC(=O)O)c1ccc(N(CC)C2CCOCC2)c(NC(=O)Nc2cc(C)on2)c1` (single isomer, unassigned) [Example 534] the figure was greater than 50 nM; with `CCCN(c1ccc([C@@H](CC)CC(=O)O)cc1Nc1cnc(OCC)nc1)C1CCOCC1` (single isomer, unassigned) [Example 535], less than 5 nM. Take `CCCN(c1ccc([C@@H](CC)CC(=O)O)cc1Nc1ccc(C#N)cc1)C1CCOCC1` (single isomer, unassigned) [Example 536]: the IC50 is less than 5 nM.

Turning to `CCCN(c1ccc([C@@H](CC)CC(=O)O)cc1Nc1ccc2nc(C)sc2c1)C1CCOCC1` (single isomer, unassigned) [Example 537], the IC50 was less than 5 nM. With `CCCN(c1ccc([C@@H](CC)CC(=O)O)cc1Nc1ccc(F)cc1)C1CCOCC1` (single isomer, unassigned) [Example 538] the figure was less than 5 nM; with `CCCN(c1ccc([C@@H](CC)CC(=O)O)cc1Nc1ccc2c(c1)OC(F)(F)O2)C1CCOCC1` (single isomer, unassigned) [Example 539], less than 5 nM. `CCCN(c1ccc([C@@H](CC)CC(=O)O)cc1Nc1cnc(OC)nc1)C1CCOCC1` (single isomer, unassigned) [Example 540]: the half-maximal inhibitory concentration (IC50) is less than 5 nM. With `CCCN(c1ccc([C@@H](CC)CC(=O)O)cc1Nc1ccc(Cl)cc1)C1CCOCC1` (single isomer, unassigned) [Example 541] the figure was less than 5 nM; with `CCCN(c1ccc([C@@H](COC)CC(=O)O)cc1Nc1ccc2nc(C)sc2c1)C1CCOCC1` (single isomer, unassigned) [Example 560], less than 50 nM. With `CCCN(c1ccc([C@@H](COC)CC(=O)O)cc1Nc1ccc2c(c1)OC(F)(F)O2)C1CCOCC1` (single isomer, unassigned) [Example 561] the figure was greater than 50 nM; with `CCCN(c1ccc([C@@H](COC)CC(=O)O)cc1Nc1ccc(F)cc1)C1CCOCC1` (single isomer, unassigned) [Example 562], less than 5 nM; with `CCCN(c1ccc([C@@H](COC)CC(=O)O)cc1Nc1cnc(OCC2CC2)nc1)C1CCOCC1` (single isomer, unassigned) [Example 563], less than 50 nM.

For the molecule `CCCN(c1ccc([C@@H](COC)CC(=O)O)cc1Nc1ccc(Cl)cc1)C1CCOCC1` (single isomer, unassigned) [Example 564], the IC50 is less than 5 nM. `CCOc1ncc(Nc2cc(C(CC(=O)O)c3ccccc3)ccc2N(CC)C2CCOCC2)cn1` (single isomer, unassigned) [Example 578, 3-(3-((2-Ethoxypyrimidin-5-yl)amino)-4-(ethyl(tetrahydro-2H-pyran-4-yl)amino)phenyl)-3-phenylpropanoic acid]: the IC50 is less than 50 nM.

Regarding `CCN(c1ccc(C(CC(=O)O)c2ccccc2)cc1Nc1ccc2nc(C)sc2c1)C1CCOCC1` (single isomer, unassigned) [Example 579, 3-(4-(ethyl(tetrahydro-2H-pyran-4-yl)amino)-3-((2-methylbenzo[d]thiazol-6-yl)amino)phenyl)-3-phenylpropanoic acid], the IC50 was greater than 50 nM.

`CCN(c1ccc(C(CC(=O)O)c2ccccc2)cc1Nc1ccc(Cl)cc1)C1CCOCC1` (single isomer, unassigned) [Example 580, 3-(3-((4-chlorophenyl)amino)-4-(ethyl(tetrahydro-2H-pyran-4-yl)amino)phenyl)-3-phenylpropanoic acid]: the IC50 was less than 5 nM. In the case of `CCN(c1ccc(C(CC(=O)O)c2ccccc2)cc1Nc1ccc(C#N)cc1)C1CCOCC1` (single isomer, unassigned) [Example 581, 3-(3-((4-cyanophenyl)amino)-4-(ethyl(tetrahydro-2H-pyran-4-yl)amino)phenyl)-3-phenylpropanoic acid], the half-maximal inhibitory concentration (IC50) is less than 5 nM. For `CCN(c1ccc(C(CC(=O)O)c2ccccc2)cc1Nc1ccc(OC(F)F)cc1)C1CCOCC1` (single isomer, unassigned) [Example 583, 3-(3-((4-(difluoromethoxy)phenyl)amino)-4-(ethyl(tetrahydro-2H-pyran-4-yl)amino)phenyl)-3-phenylpropanoic acid], the concentration for half-maximal inhibition (IC50) was less than 50 nM. On to `CCN(c1ccc(C(CC(=O)O)c2ccccc2)cc1NC(=O)Nc1ccc(C)cc1)C1CCOCC1` (single isomer, unassigned) [Example 584, 3-(4-(Ethyl(tetrahydro-2H-pyran-4-yl)amino)-3-(3-(p-tolyl)ureido)phenyl)-3-phenylpropanoic acid], for which the half-maximal inhibitory concentration (IC50) was greater than 50 nM. For the molecule `CCN(c1ccc(C(CC(=O)O)c2ccccc2)cc1NC(=O)Nc1ccc(Cl)cc1F)C1CCOCC1` (single isomer, unassigned) [Example 585, 3-(3-(3-(4-chloro-2-fluorophenyl)ureido)-4-(ethyl (tetrahydro-2H-pyran-4-yl)amino)phenyl)-3-phenylpropanoic acid], the half-inhibitory concentration (IC50) is less than 50 nM.

For the molecule `CCN(c1ccc(C(CC(=O)O)c2ccccc2)cc1NC(=O)Nc1ccc(OC)cc1F)C1CCOCC1` (single isomer, unassigned) [Example 586, 3-(4-(ethyl(tetrahydro-2H-pyran-4-yl)amino)-3-(3-(2-fluoro-4-methoxyphenyl)ureido)phenyl)-3-phenylpropanoic acid], the IC50 was greater than 50 nM. With `CCN(c1ccc(C(CC(=O)O)c2ccccc2)cc1NC(=O)Nc1cc(C)on1)C1CCOCC1` (single isomer, unassigned) [Example 587, 3-(4-(ethyl(tetrahydro-2H-pyran-4-yl)amino)-3-(3-(5-methylisoxazol-3-yl)ureido)phenyl)-3-phenylpropanoic acid] the figure was greater than 50 nM. Turning to `CCOc1ncc(Nc2cc(C(CC(=O)O)c3ccccc3)ccc2N(CC)C2CCOCC2)cn1` (single isomer, unassigned) [Example 588, 3-(3-((2-Ethoxypyrimidin-5-yl)amino)-4-(ethyl(tetrahydro-2H-pyran-4-yl)amino)phenyl)-3-phenylpropanoic acid], the IC50 is greater than 50 nM.

As for `CCN(c1ccc(C(CC(=O)O)c2ccccc2)cc1Nc1ccc(Cl)cc1)C1CCOCC1` (single isomer, unassigned) [Example 590, 3-(3-((4-chlorophenyl)amino)-4-(ethyl(tetrahydro-2H-pyran-4-yl)amino)phenyl)-3-phenylpropanoic acid], the IC50 is less than 50 nM. Consider `CCN(c1ccc(C(CC(=O)O)c2ccccc2)cc1Nc1ccc(Cl)cc1F)C1CCOCC1` (single isomer, unassigned) [Example 592, 3-(3-((4-chloro-2-fluorophenyl)amino)-4-(ethyl(tetrahydro-2H-pyran-4-yl)amino)phenyl)-3-phenylpropanoic acid], for which the half-inhibitory concentration (IC50) was greater than 50 nM. With `CCN(c1ccc(C(CC(=O)O)c2ccccc2)cc1NC(=O)Nc1ccc(Cl)cc1F)C1CCOCC1` (single isomer, unassigned) [Example 595, 3-(3-(3-(4-chloro-2-fluorophenyl)ureido)-4-(ethyl(tetrahydro-2H-pyran-4-yl)amino)phenyl)-3-phenylpropanoic acid] the figure was greater than 50 nM. With `CCN(c1ccc(C(C)CC(=O)O)cc1Nc1ccc(Cl)cc1)C1CCOCC1` (single isomer, unassigned) [Example 612 E1, 3-(3-((4-Chlorophenyl)amino)-4-(ethyl(tetrahydro-2H-pyran-4-yl)amino)phenyl)butanoic acid], the IC50 was less than 5 nM. With `CCN(c1ccc(C(C)CC(=O)O)cc1Nc1ccc(C#N)cc1)C1CCOCC1` (single isomer, unassigned) [Example 613, 3-(3-((4-cyanophenyl)amino)-4-(ethyl(tetrahydro-2H-pyran-4-yl)amino)phenyl) butanoic acid] the figure was less than 5 nM.

In the case of `CCN(c1ccc(C(C)CC(=O)O)cc1Nc1cnc(OCC2CC2)nc1)C1CCOCC1` (single isomer, unassigned) [Example 614, 3-(3-((2-(cyclopropylmethoxy)pyrimidin-5-yl)amino)-4-(ethyl(tetrahydro-2H-pyran-4-yl)amino)phenyl)butanoic acid], the IC50 was less than 50 nM.

In the case of `CCN(c1ccc(C(C)CC(=O)O)cc1Nc1ccc(F)cc1)C1CCOCC1` (single isomer, unassigned) [Example 615, 3-(4-(ethyl(tetrahydro-2H-pyran-4-yl)amino)-3-((4-fluorophenyl)amino)phenyl) butanoic acid], the IC50 was less than 5 nM. As for `CCN(c1ccc(C(C)CC(=O)O)cc1Nc1ccc2c(c1)OC(F)(F)O2)C1CCOCC1` (single isomer, unassigned) [Example 616, 3-(3-((2,2-difluorobenzo[d] [1,3]dioxol-5-yl)amino)-4-(ethyl(tetrahydro-2H-pyran-4-yl)amino)phenyl)butanoic acid], the half-maximal inhibitory concentration (IC50) is less than 5 nM. With `CCN(c1ccc(C(C)CC(=O)O)cc1Nc1ccc2nc(C)sc2c1)C1CCOCC1` (single isomer, unassigned) [Example 617, 3-(4-(ethyl(tetrahydro-2H-pyran-4-yl)amino)-3-((2-methylbenzo[d]thiazol-6-yl)amino)phenyl)butanoic acid] the figure was less than 50 nM; with `CCOc1cnc(Nc2cc(C(C)CC(=O)O)ccc2N(CC)C2CCOCC2)cn1` (single isomer, unassigned) [Example 618, 3-(3-((5-ethoxypyrazin-2-yl)amino)-4-(ethyl (tetrahydro-2H-pyran-4-yl)amino)phenyl)butanoic acid], less than 5 nM. With `CCOc1ncc(Nc2cc(C(C)CC(=O)O)ccc2N(CC)C2CCOCC2)cn1` (single isomer, unassigned) [Example 619, 3-(3-((2-ethoxypyrimidin-5-yl)amino)-4-(ethyl (tetrahydro-2H-pyran-4-yl)amino)phenyl)butanoic acid] the figure was less than 50 nM.
